A short description of test [1]: Inhibition of BRD4 in human HEL cells harboring JAK2 V617F mutant assessed as decrease in metabolic activity measured after 72 hrs by MTT assay. (In general: Tetrazolium dyes change colour on reduction, which living cells bring about.)
Test [2] can be described thus: Inhibition of BRD4 in human MOLM-14 cells harboring FLT3-ITD mutant assessed as decrease in metabolic activity measured after 72 hrs by MTT assay.

`CN1Cc2cc(N=[S@@](C)(=O)c3ccccc3)ccc2NC1=O`: the IC50 (as a rule, the midpoint of a concentration-inhibition curve) turned out to be 500 nM in test [1] and 1000 nM in test [2].

The values are drawn from BindingDB's records for doi:10.1021/acsmedchemlett.9b00625 (Rwth Aachen University, 2020).
